This is an account of results in US6689609B1, “Enhancing germination of plant somatic embryos by priming” (Cellfor Inc., priority 1999, dated 2004).

Assay [1] concerns interior spruce somatic embryos. Briefly: Plant growth regulators added to horticultural growing substrate after sowing: ex vitro germination and rooting of nutriprimed interior spruce somatic embryos. The format is in vivo, Picea glauca (Moench) Voss x P. engelmannii Parry ex Engelm. To be noted: primed. From the text: The second study assessing the effects of plant growth regulators on germination performance of nutriprimed somatic embryos involved additions of plant growth regulators to the horticultural growing substrates after the nutriprimed somatic embryos were sown ex vitro. In this study, somatic embryos from interior spruce genotypes 4-2809, 23-2672, and I-1026 were desiccated and stored as described for the first growth regulator study. Prior to nutripriming, genotype I-1026 was imbibed with a matripriming step which consisted of placing the desiccated embryos onto a screen, and then placing the screen on the surface of an agar substrate gelled with 3% phytogel foe 18 hrs. After this imbibition step was completed for genotype I-1026, all three genotypes were nutriprimed for 84 hr in 3% w/v sucrose m24GMD nutripriming solutions and then sown ex vitro into 400-cavity styrofoam miniplug trays filled with peat bound by a polymer (Grow-Tech Inc., San Bautista, Calif.). After sowing was completed, the nutriprimed embryo received exogenous applications of one of the treatments described in Table 8.3.
After the exogenous application of the plant growth regulator treatments, the blocks were placed onto a non-sterile high-humidity (≧95% RH) germination chamber for one week. Immediately after the trays containing ex vitro sown nutriprimed embryos were placed into the non-sterile high-humidity germination chamber, they were misted with m24GMD solution containing 3% w/v sucrose until the surfaces of the non-sterile growing substrates were well-wetted, and then at daily intervals for a period of 7 days. After the initial 7-day period in the non-sterile high-humidity germination environment, the trays were moved to a non-sterile misting chamber (RH ranged between 75-90%) for two more weeks of growth under an 18-hour photoperiod of […] PAR with day-night temperatures of 18-23° C. Daily applications of the m24GMD nutrient solution containing 3% w/v sucrose were misted onto the germinants through to the end of the two-week period in the misting chamber. Aseptic techniques or conditions were not used for application of the nutrient solutions, nor for the germination and growing environments during the 3-week culture period.
At the end of the three-week germination period, all survived germinants were counted and examined for root initiation. Germination and rooting percentages were calculated based on total number of embryos sown in each replicate.

Assay [2] shares this test system. Briefly: Plant growth regulators added to nutripriming solutions: ex vitro germination and rooting of interior spruce somatic embryos. The format is in vivo, Picea glauca (Moench) Voss x P. engelmannii Parry ex Engelm. From the text: Mature somatic embryos of interior spruce (Picea glauca (Moench) Voss x P. engelmannii Parry ex Engelm.) genotypes 4-2809, 23-2672, and I-1026 were desiccated with the HRHT treatment. Genotype I-1026 was further desiccated at 85% RH for three days, then stored at −20C. Prior to nutripriming, genotype I-1026 was imbibed with a matripriming step which consisted of placing the desiccated embryos onto a screen, and then placing the screen on the surface of an agar substrate gelled with 3% phytogel for 18 hrs. After this imbibition step was completed for genotype I-1026, all three genotypes were nutriprimed for 84 hr in 3% w/v sucrose m24GMD nutripriming solutions amended with the plant growth regulators described in Table 8.1.
After the nutripriming step was completed, the nutriprimed somatic embryos were sown ex vitro into 400-cavity styrofoam miniplug trays filled with peat bound by a polymer (Grow-Tech Inc., San Bautista, Calif.). After sowing, the trays were placed into a non-sterile high-humidity (≧95% RH) germination chamber for one week. In both studies, immediately after the trays containing ex vitro sown nutriprimed embryos were placed into the non-sterile high-humidity germination chamber, they were misted with m24GMD solution containing 3% w/v sucrose until the surfaces of the non-sterile growing substrates were well-wetted, and subsequently at daily intervals for a period of 7 days. After the initial 7-day period in the non-sterile high-humidity germination environment, the trays were moved to a non-sterile misting chamber (RH ranged between 75-90%) for two more weeks of growth under an 18-hour photoperiod of […] PAR with day-night temperatures of 18-23° C. Daily applications of the m24GMD nutrient solution containing 3% w/v sucrose were misted onto the germinants through to the end of the two-week period in the misting chamber. Aseptic techniques or conditions were not used for application of the nutrient solutions, or for the germination and growing environments during the 3-week culture period.
At the end of the three-week germination period, all germinated embryos and seedlings were counted and examined for root initiation. Germination and rooting percentages were calculated based on total number of embryos sown in each replicate. The rooting percentage measures the plant conversion rate since the survived germinants can have perfectly elongated and formed shoot, but without root initiation.

[3] abbreviates: genotype 4-2809, HRHT, IBA 0.2 μM.
The mark [4] stands for this setting: genotype 4-2809, HRHT, substrate given no regulator or IBA 0.1 μM alone, + BA 0.02 μM, + BA 0.02 μM + GA4/7 0.2 μM (so in the source), or + GA4/7 0.1 μM.
The mark [5] stands for this setting: genotype 23-2672, HRHT, IBA 0.2 μM.
[6] abbreviates: genotype 23-2672, HRHT, substrate given no regulator or IBA 0.1 μM alone, + BA 0.02 μM, + BA 0.02 μM + GA4/7 0.2 μM (so in the source), or + GA4/7 0.1 μM.
Where [7] appears, read: genotype I-1026, 85% & frozen, IBA 0.2 μM.
The mark [8] stands for this setting: genotype I-1026, 85% & frozen, substrate given no regulator or IBA 0.1 μM alone, + BA 0.02 μM, + BA 0.02 μM + GA4/7 0.2 μM (so in the source), or + GA4/7 0.1 μM.
The mark [9] stands for this setting: genotype 4-2809, HRHT, IBA 0.1 μM in priming solution.
Setting [10] is: genotype 4-2809, HRHT, priming solution with no regulator or IBA 0.05 μM alone, + BA 0.01 μM, + BA 0.01 μM + GA4/7 0.01 μM, or + GA4/7 0.05 μM.
Where [11] appears, read: genotype 23-2672, HRHT, IBA 0.1 μM in priming solution.
Setting [12] is: genotype 23-2672, HRHT, priming solution with no regulator or IBA 0.05 μM alone, + BA 0.01 μM, + BA 0.01 μM + GA4/7 0.01 μM, or + GA4/7 0.05 μM.
[13] abbreviates: genotype I-1026, 85% & frozen, IBA 0.1 μM in priming solution.
Setting [14] is: genotype I-1026, 85% & frozen, priming solution with no regulator or IBA 0.05 μM alone, + BA 0.01 μM, + BA 0.01 μM + GA4/7 0.01 μM, or + GA4/7 0.05 μM.

As to `O=C(O)CCCc1c[nH]c2ccccc12` [IBA, indole-butyric-acid], the Germination % is 97.5 ± 1.4% in assay [1] (setting [3]); 92.5 ± 7.5% in assay [1] (setting [4]); 72.5 ± 10.9% in assay [1] (setting [5]); 72.5 ± 11. % in assay [1] (setting [6]); 80.0 ± 6.8% in assay [1] (setting [7]); 91.3 ± 5.5% in assay [1] (setting [8]). For the same compound, the Germination % worked out at 68.8 ± 5.2% in assay [2] (setting [9]); 92.5 ± 6.0% in assay [2] (setting [10]); 82.5 ± 9.7% in assay [2] (setting [11]); 90.0 ± 3.5% in assay [2] (setting [12]); 88.8 ± 6.6% in assay [2] (setting [13]); 93.8 ± 2.4% in assay [2] (setting [14]). Moreover, the Rooting % in assay [1] (setting [3]) is listed as 78.8 ± 7.5%; in assay [1] (setting [4]), 75.0 ± 10.2%; in assay [1] (setting [5]) it was 67.5 ± 10.1%; in assay [1] (setting [6]), 61.3 ± 13.4%; in assay [1] (setting [7]), 65.0 ± 5.4%; in assay [1] (setting [8]), 66.3 ± 3.7%. Moreover, the Rooting % was determined as 51.3 ± 4.3% in assay [2] (setting [9]); 82.5 ± 6.0% in assay [2] (setting [10]); 72.5 ± 6.3% in assay [2] (setting [11]); 71.3 ± 6.6% in assay [2] (setting [12]); 58.8 ± 5.9% in assay [2] (setting [13]); 66.3 ± 4.7% in assay [2] (setting [14]).
